Here are results for 1 compound from paper PMC6530361, “Anti-tumor Efficacy Assessment of the Sigma Receptor Pan Modulator RC-106. A Promising Therapeutic Tool for Pancreatic Cancer” (Frontiers in Pharmacology, 2019).

Each structure is given as a SMILES string.

Data set [1] has as its system Capan-1. Nature of the data set: Western Blot of caspase 3 and 9 activation. The format is cell-based. The settings on record: Capan-1, 12 h, 50 μM. Here is the method:
(§1) Western Blot were performed as previously described ([Arienti et al., 2016]). Briefly, Cell proteins were extracted with M-PER (Thermo Fisher Scientific) supplemented with Halt Protease Phosphatase Inhibitor Cocktail (Thermo Fisher Scientific).
(§2) Mini-PROTEANTGX^TM precast gels (4–20% and any kD; BIO-RAD) were run using Mini-PROTEAN Tetra electrophoresis cells and then electroblotted by Trans-Blot Turbo^TM Mini PVDF Transfer Packs (BIORAD). The unoccupied membrane sites were blocked with T-TBS 1X (Tween 0.1%) and 5% non-fat dry milk to prevent non-specific binding of antibodies and probed with specific primary antibodies overnight at 4°C. This was followed by incubation with the respective secondary antibodies. The antibody-antigen complexes were detected with Immun-Star^TM WesternC^TM kit (BIO-RAD).
(§3) The following primary antibodies were used: anti-sigma receptor (S18): sc-22948 (Santa Cruz Biotechnology inc.), anti-TMEM97, anti-caspase-3, and anti-caspase-9. Anti-vinculin (sc-5573) from Santa Cruz Biotechnology and anti-actin from Sigma Aldrich Inc., were used as housekeeping. Quantity One Software was used for analysis.

The test system of data set [2] is Capan-2. The data set is described as follows: Western Blot of caspase 3 and 9 activation. As to conditions: Capan-2, 48 h, 25 μM. Format: cell-based. The method, then: as §1, §2, §3
Data set [3] has as its system Panc-1. Nature of the data set: Western Blot of caspase 3 and 9 activation. As to conditions: Panc-1, 48 h, 25 μM. Format: cell-based. The method, then:
as §1, §2, §3

Data set [4] can be described thus: In vivo pharmacokinetic study, plasma. Further details: species or system male CD-1 mice. As to conditions: mice. The method, then: The experiments were performed in agreement with the Italian Law D. L.vo 4 marzo 2014, n. 26. The treatments involved male CD-1 mice and a unique number on the tail identified each animal. Mice were housed, in groups of four, in cages suitable for the species. After 5 days of adaptation to the local housing conditions, animals were housed in a single, exclusive, air-conditioned room to provide a minimum of 15 air changes/hour. The environmental controls were set to maintain the temperature at around 22°C and the relative humidity within the range 50 to 60%, along with an approximate 12:12 h light/dark cycle automatically controlled. Food (Mucedola Standard GLP diet) and water were available ad libitum throughout the entire duration of the study. All animals were weighted on the day of the treatment.
Mice (n = 4/time point) received an intraperitoneal administration (i.p., 10 mL/kg) of RC-106 at 10 mg/kg. CD-1 male mice were exsanguinated under anesthesia (isoflurane) from the aorta at the following time points: 5, 10, 30, 120, 240, and 480 min. Blood samples were collected in tubes containing heparin, gently mixed and immediately placed on ice. Afterward, they have been centrifuged (3500 × g, at 4°C for 15 min), the obtained plasma has been collected and transferred to individually labeled tubes and frozen at -20°C until the analysis. Plasma samples were used for quantification of RC-106. Pancreas was taken by surgical resection after 20 min from the last treatment, washed in saline, dried on paper, weighted and frozen at -20°C. The organ was homogenized using a Velp OV5 homogenizer with 20 mM ammonium formiate buffer in a ratio of 1 g of tissue per 10 mL of buffer.
20 mg/mL stock solution (s.s.) of RC-106 was prepared by dissolving the compound in DMSO. 1 mL of 5% Tween80 in H2O was slowly added to 500 μL of s.s. under stirring. Then 8.5 mL of water was gently spiked to obtain the 1 mg/mL formulation of RC-106.
Standard curves of RC-106 were prepared for plasma and pancreas homogenate, and analyzed together with each QC and unknown sample set. For the PK and pancreas distribution sample analysis, plasma and pancreas homogenate samples (50 μL) were spiked in 200 μL of IS in MeOH (0.1 μg/mL of RC-33), followed by 2 min vortex mixing. Samples were centrifuged and transferred in UFLC vials. 5 μL aliquots of the collected samples were injected into the LC-MS/MS system. Standard calibration graphs were constructed by linear least-squares regression analysis on the analyte/IS area ratio plotted against sample concentration. Calibration ranges were from 5 to 1000 ng/mL for plasma, and from 5 to 500 ng/mL for pancreas homogenate. Accuracy values were determined in triplicates at three different concentrations (high, medium, and low) in the range of linearity of the calibration curves.
Analyses were acquired on a Shimadzu AC20 UFLC system interfaced with an API 3200 Triple Quadrupole detector (AB Sciex). Data acquisition and control were performed using the Analyst^TM 6.1 (Applied Biosystems) Software. A Phenomenex Gemini-NX C18 (50 mm × 2 mm, 5 μm) column was selected to carry out the analytical evaluations. A gradient method was set up (Supplementary Table S1) and it provided the employment of water and methanol, both containing 0.1% of formic acid, at a flow rate of 0.3 mL/min. The LC eluate was directly introduced into the MS interface using the ESI in the positive ion mode. The MRM transitions m/z 181.2 were tracked (Supplementary Table S2).

The test system of data set [5] is S1R. Also on record: method as in Rui et al., 2016; Rossi et al., 2017. The settings on record: ref Rui et al., 2016; Rossi et al., 2017; cited from earlier work.
Where [6] appears, read: male, CD-1, mouse, plasma, ip, 10 mg/kg.

With `C/C(=C\CN1CCC(Cc2ccccc2)CC1)c1ccc2ccccc2c1` [RC-106, (E)-4-benzyl-1-(3-(naphthalen-2-yl)but-2-en-1-yl)piperidine], the “caspases 3 and 9 cleavage” value in data set [1] is given as “cleaved”. Also, the “caspases 3 and 9 cleavage” value in data set [2] was “cleaved”. Also, the “caspases 3 and 9 cleavage” value in data set [3] was “cleaved”. For the same compound, in data set [4] (setting [6]), the maximum concentration (Cmax) came to 973 ng/mL and the Tmax is 5 min. Also, in data set [4] (male, CD-1, mouse, plasma, ip, 10 mg/kg, i.p., 10 mg/kg, read-out: AUC0-t, plasma (converted)), the AUC(0-t) was 1130 ng·h/mL. Also, in data set [4] (male, CD-1, mouse, plasma, ip, 5 min after i.p. 10 mg/kg, read-out: plasma C), the concentration at 5 min came to 973 ng/mL. Further, in data set [4] (male, CD-1, mouse, plasma, ip, 10 min after i.p. 10 mg/kg, read-out: plasma C), the concentration at 10 min worked out at 884 ng/mL. Moreover, in data set [4] (male, CD-1, mouse, plasma, ip, 30 min after i.p. 10 mg/kg, read-out: plasma C), the concentration at 30 min stood at 361 ng/mL. Moreover, the concentration at 120 min in data set [4] (male, CD-1, mouse, plasma, ip, 120 min after i.p. 10 mg/kg, read-out: plasma C) was determined as 134 ng/mL. Further, the concentration at 240 min in data set [4] (male, CD-1, mouse, plasma, ip, 240 min after i.p. 10 mg/kg, read-out: plasma C) came to 76 ng/mL. For the same compound, the concentration at 480 min in data set [4] (male, CD-1, mouse, plasma, ip, 480 min after i.p. 10 mg/kg, read-out: plasma C) worked out at 38 ng/mL. Also, the half-life in data set [4] (male, CD-1, mouse, plasma, ip, i.p., 10 mg/kg, read-out: t1/2, plasma) is 3.37 h. In data set [4] (i.p., 10 mg/kg), the “AUC0-t, plasma” value is 67987 ng·min/mL and the “Cmax, plasma” value came out at 973 ± 167 ng/mL. Further, the S1R modulatory profile result in data set [5] was “S1R antagonist”.
